Laboratory results from US10188634B2, “3-(3H-imidazo[4,5-C]pyridin-2-yl)-1 H-pyrazolo[4,3-B]pyridines and therapeutic uses thereof” (Samumed, LLC, priority 2015, dated 2019).

Experiments:
Assay type in all cases: cell-based
SW480 colon cancer cells = test: Cell viability assay (CellTiter-Blue) in SW480 colon cancer cells; settings: Homo sapiens, 96 h; for EC50: four days incubation, CellTiter-Blue cell viability; for inhibition at 10 µM: four days, CellTiter-Blue, read-out: percent inhibition at 10 μM (given for EC50 of >10 μM)
Procedure, shortened: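 About 2×10^3 SW480 colon cancer cells per well were exposed to compound (8-point 1:3 dilutions, 10 μM to 0.004 μM) for four days at 37 °C. Viability was read by CellTiter-Blue resazurin reduction (~3 h, Ex 560/Em 590). EC50 from nonlinear regression; above 10 μM, % inhibition at 10 μM is reported.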

[1] = tested on: LL29 cells (primary human fibroblasts derived from IPF patients) treated with TGF-β1, α-smooth muscle actin; test: Inhibition of the fibrotic process: αSMA staining in TGF-β1 treated primary human fibroblasts from IPF patients (LL29 cells); settings: Fibroblast, 96 h; for EC50: LL29 cells treated with TGF-β1 (20 ng/mL), 4 days; for inhibition at 10 µM: LL29 cells treated with TGF-β1, 4 days, read-out: percent inhibition in brackets (given for EC50 >10 μM)
[2] = tested on: Wnt activity (Sp5-Luc reporter, human Sp5 promoter with eight TCF/LEF binding sites) in SW480 colon carcinoma cells; test: Screening assay for Wnt activity: Sp5-Luc reporter gene assay in SW480 cells; settings: for EC50: 10-point dose-response starting from 10 μM, overnight incubation; for inhibition at 10 µM: read-out: percent inhibition at 10 μM (given for EC50 of >10 μM)
Procedure, shortened: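 SW480 cells stably carrying Sp5-Luc reporter (eight TCF/LEF sites) plated at 4,000/well in 1% FBS medium with compound (10-point 1:3 series from 10 μM, 0.1% DMSO) overnight at 37 °C. BrightGlo luminescence normalized to DMSO; EC50 by four-parameter fit, else % inhibition at 10 μM.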

| EC50 (SW480 colon cancer cells) [µM] | EC50 [2] [µM] | Structure (SMILES) | EC50 [1] [µM] | inhibition at 10 µM [1] [%] | inhibition at 10 µM (SW480 colon cancer cells) [%] | inhibition at 10 µM [2] [%] |
| --- | --- | --- | --- | --- | --- | --- |
| 4.61 | 8.61 | c1cc(-c2cncc3[nH]c(-c4n[nH]c5ccc(-c6cncc(CNCC7CCCC7)c6)nc45)nc23)co1 [Compound 305, 1-Cyclopentyl-N-((5-(3-(7-(furan-3-yl)-3H-imidazo[4,5-c]pyridin-2-yl)-1H-pyrazolo[4,3-b]pyridin-5-yl)pyridin-3-yl)methyl)methanamine] | > 10 | 0 | – | – |
| > 10 | 0.71 | CN(C)c1cncc(-c2ccc3[nH]nc(-c4nc5c(-c6cccs6)cncc5[nH]4)c3n2)c1 [Compound 315, N,N-Dimethyl-5-(3-(7-(thiophen-2-yl)-3H-imidazo[4,5-c]pyridin-2-yl)-1H-pyrazolo[4,3-b]pyridin-5-yl)pyridin-3-amine] | > 10 | 34.3 | 43.8 | – |
| 0.097 | 0.041 | Cc1ccc(-c2cncc3[nH]c(-c4n[nH]c5ccc(-c6cncc(N)c6)nc45)nc23)s1 [Compound 367, 5-(3-(7-(5-Methylthiophen-2-yl)-3H-imidazo[4,5-c]pyridin-2-yl)-1H-pyrazolo[4,3-b]pyridin-5-yl)pyridin-3-amine] | 0.815 | – | – | – |
| 5.54 | 3.44 | CN(C)CCOc1cncc(-c2ccc3[nH]nc(-c4nc5c(-c6cccc(F)c6)cncc5[nH]4)c3n2)c1 [Compound 487, 2-((5-(3-(7-(3-Fluorophenyl)-3H-imidazo[4,5-c]pyridin-2-yl)-1H-pyrazolo[4,3-b]pyridin-5-yl)pyridin-3-yl)oxy)-N,N-dimethylethan-1-amine] | > 10 | 30.7 | – | – |
| > 10 | > 10 | O=C(CC1CCNCC1)Nc1cncc(-c2ccc3[nH]nc(-c4nc5c(-c6ccccn6)cncc5[nH]4)c3n2)c1 [Compound 565, 2-(Piperidin-4-yl)-N-(5-(3-(7-(pyridin-2-yl)-3H-imidazo[4,5-c]pyridin-2-yl)-1H-pyrazolo[4,3-b]pyridin-5-yl)pyridin-3-yl)acetamide] | 0.839 | – | 5.1 | 44.2 |
| > 10 | > 10 | c1ncc(-c2ccc3[nH]nc(-c4nc5c(N6CCCCC6)cncc5[nH]4)c3n2)cc1OCCN1CCCC1 [Compound 582, 3-(7-(Piperidin-1-yl)-3H-imidazo[4,5-c]pyridin-2-yl)-5-(5-(2-(pyrrolidin-1-yl)ethoxy)pyridin-3-yl)-1H-pyrazolo[4,3-b]pyridine] | 3.32 | – | 15.8 | 6.6 |
| > 10 | > 10 | Oc1cncc(-c2ccc3[nH]nc(-c4nc5c(N6CCCCC6)cncc5[nH]4)c3n2)c1 [Compound 585, 5-(3-(7-(Piperidin-1-yl)-3H-imidazo[4,5-c]pyridin-2-yl)-1H-pyrazolo[4,3-b]pyridin-5-yl)pyridin-3-ol] | > 10 | 39.1 | 2.4 | 4.3 |
| > 10 | > 10 | Cc1cn(-c2cncc3[nH]c(-c4n[nH]c5ccc(-c6cncc(OCCN(C)C)c6)nc45)nc23)cn1 [Compound 599, N,N-Dimethyl-2-((5-(3-(7-(4-methyl-1H-imidazol-1-yl)-3H-imidazo[4,5-c]pyridin-2-yl)-1H-pyrazolo[4,3-b]pyridin-5-yl)pyridin-3-yl)oxy)ethan-1-amine] | > 10 | 15.4 | 7.1 | 6.3 |
| > 10 | > 10 | CN1CCN(c2cncc3[nH]c(-c4n[nH]c5ccc(-c6cnccn6)nc45)nc23)CC1 [Compound 620, 3-(7-(4-Methylpiperazin-1-yl)-3H-imidazo[4,5-c]pyridin-2-yl)-5-(pyrazin-2-yl)-1H-pyrazolo[4,3-b]pyridine] | > 10 | 34.1 | 48.8 | 5.8 |
| > 10 | > 10 | O=C(CC1CCNCC1)Nc1cncc(-c2ccc3[nH]nc(-c4nc5c(-c6ccsc6)cncc5[nH]4)c3n2)c1 [Compound 629, 2-(Piperidin-4-yl)-N-(5-(3-(7-(thiophen-3-yl)-3H-imidazo[4,5-c]pyridin-2-yl)-1H-pyrazolo[4,3-b]pyridin-5-yl)pyridin-3-yl)acetamide] | 2.54 | – | 2.8 | 30.6 |
| 2.88 | 0.911 | Cc1ncc(-c2ccc3[nH]nc(-c4nc5c(-c6ccoc6)cncc5[nH]4)c3n2)n1C [Compound 641, 5-(1,2-Dimethyl-1H-imidazol-5-yl)-3-(7-(furan-3-yl)-3H-imidazo[4,5-c]pyridin-2-yl)-1H-pyrazolo[4,3-b]pyridine] | > 10 | 0 | – | – |
| > 10 | 0.551 | CC(C)(C)C(=O)Nc1cncc(-c2ccc3[nH]nc(-c4nc5c(-c6ccc(Cl)s6)cncc5[nH]4)c3n2)c1 [Compound 998, N-(5-(3-(7-(5-Chlorothiophen-2-yl)-3H-imidazo[4,5-c]pyridin-2-yl)-1H-pyrazolo[4,3-b]pyridin-5-yl)pyridin-3-yl)pivalamide] | 2.7 | – | 1.5 | – |

The next lines start with the compound.

| Structure (SMILES) | EC50 (SW480 colon cancer cells) [µM] | EC50 [2] [µM] | EC50 [1] [µM] | inhibition at 10 µM [1] [%] | inhibition at 10 µM (SW480 colon cancer cells) [%] | inhibition at 10 µM [2] [%] |
| --- | --- | --- | --- | --- | --- | --- |
| CCCC(=O)Nc1cncc(-c2ccc3[nH]nc(-c4nc5c(-c6ccsc6)cncc5[nH]4)c3n2)c1 [Compound 269, N-(5-(3-(7-(Thiophen-3-yl)-3H-imidazo[4,5-c]pyridin-2-yl)-1H-pyrazolo[4,3-b]pyridin-5-yl)pyridin-3-yl)butyramide] | 3.44 | 3.72 | 7.23 | – | – | – |
| FC1(F)CCN(Cc2cncc(-c3ccc4[nH]nc(-c5nc6c(-c7ccsc7)cncc6[nH]5)c4n3)c2)C1 [Compound 278, 5-(5-((3,3-difluoropyrrolidin-1-yl)methyl)pyridin-3-yl)-3-(7-(thiophen-3-yl)-3H-imidazo[4,5-c]pyridin-2-yl)-1H-pyrazolo[4,3-b]pyridine] | 1.02 | 1.03 | 1.7 | – | – | – |
| CC(C)Nc1cncc(-c2ccc3[nH]nc(-c4nc5c(-c6ccoc6)cncc5[nH]4)c3n2)c1 [Compound 292, 5-(3-(7-(Furan-3-yl)-3H-imidazo[4,5-c]pyridin-2-yl)-1H-pyrazolo[4,3-b]pyridin-5-yl)-N-isopropylpyridin-3-amine] | 0.646 | 0.597 | 1.15 | – | – | – |
| CC(C)Nc1cncc(-c2ccc3[nH]nc(-c4nc5c(-c6cc(F)cc(NCCN(C)C)c6)cncc5[nH]4)c3n2)c1 [Compound 432, N^1-(3-Fluoro-5-(2-(5-(5-(isopropylamino)pyridin-3-yl)-1H-pyrazolo[4,3-b]pyridin-3-yl)-3H-imidazo[4,5-c]pyridin-7-yl)phenyl)-N^2,N^2-dimethylethane-1,2-diamine] | 5.36 | 1.66 | 6.41 | – | – | – |
| Cc1ccncc1-c1ccc2[nH]nc(-c3nc4c(-c5cc(F)cc(CNS(C)(=O)=O)c5)cncc4[nH]3)c2n1 [Compound 453, N-(3-Fluoro-5-(2-(5-(4-methylpyridin-3-yl)-1H-pyrazolo[4,3-b]pyridin-3-yl)-3H-imidazo[4,5-c]pyridin-7-yl)benzyl)methanesulfonamide] | > 10 | 3.21 | > 10 | 0 | 37.3 | – |
| COc1cncc(-c2ccc3[nH]nc(-c4nc5c(-c6cccc(F)c6)cncc5[nH]4)c3n2)c1 [Compound 488, 3-(7-(3-Fluorophenyl)-3H-imidazo[4,5-c]pyridin-2-yl)-5-(5-methoxylpyridin-3-yl)-1H-pyrazolo[4,3-b]pyridine] | > 10 | 0.024 | > 10 | 0 | 0 | – |
| Cc1cn(-c2cncc3[nH]c(-c4n[nH]c5ccc(C6=CCNCC6)nc45)nc23)cn1 [Compound 590, 3-(7-(4-Methyl-1H-imidazol-1-yl)-3H-imidazo[4,5-c]pyridin-2-yl)-5-(1,2,3,6-tetrahydropyridin-4-yl)-1H-pyrazolo[4,3-b]pyridine] | > 10 | > 10 | > 10 | 36.8 | 10 | 6.8 |
| CC(C)CC(=O)Nc1cncc(-c2ccc3[nH]nc(-c4nc5c(-c6ccc(Cl)s6)cncc5[nH]4)c3n2)c1 [Compound 992, N-(5-(3-(7-(5-Chlorothiophen-2-yl)-3H-imidazo[4,5-c]pyridin-2-yl)-1H-pyrazolo[4,3-b]pyridin-5-yl)pyridin-3-yl)-3-methylbutanamide] | > 10 | 4.08 | 2.29 | – | 25.1 | – |
| Clc1ccc(-c2cncc3[nH]c(-c4n[nH]c5ccc(-c6cncc(CN7CCCC7)c6)nc45)nc23)s1 [Compound 1004, 3-(7-(5-Chlorothiophen-2-yl)-3H-imidazo[4,5-c]pyridin-2-yl)-5-(5-(pyrrolidin-1-ylmethyl)pyridin-3-yl)-1H-pyrazolo[4,3-b]pyridine] | 2.94 | 3.79 | 3.47 | – | – | – |
